Patent publication US6737383B1, “Herbicidal oxadiazolidines” (priority 1999, dated 2004)

Key:
wild oat = assay: Test B pre/postemergence wild oat; format: in vivo, Avena fatua
Outline: (§1)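 Test chemicals in a non-phytotoxic solvent mixture with surfactant were sprayed preemergence onto planted seeds and postemergence onto plants 2 to 18 cm tall (1- to 4-leaf stage). After twelve to sixteen days in a greenhouse, injury was visually rated against untreated controls from 0 (no effect) to 10 (complete control).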

wheat = assay: Test B pre/postemergence wheat; format: in vivo, Triticum aestivum
Outline: as §1

surinam grass = assay: Test B pre/postemergence surinam grass; format: in vivo, Brachiaria decumbens
Outline: as §1

soybean = assay: Test B pre/postemergence soybean; format: in vivo, Glycine max
Outline: as §1

corn = assay: Test B pre/postemergence corn; format: in vivo, Zea mays
Outline: as §1

bedstraw = assay: Test B pre/postemergence bedstraw; format: in vivo, Galium aparine
Outline: as §1

giant foxtail = assay: Test B pre/postemergence giant foxtail; format: in vivo, Setaria faberii
Outline: as §1

blackgrass = assay: Test B pre/postemergence blackgrass; format: in vivo, Alopecurus myosuroides
Outline: as §1

velvetleaf = assay: Test B pre/postemergence velvetleaf; format: in vivo, Abutilon theophrasti
Outline: as §1

crabgrass = assay: Test B pre/postemergence crabgrass; format: in vivo, Digitaria sanguinalis
Outline: as §1

morningglory = assay: Test B pre/postemergence morningglory; format: in vivo, Ipomoea hederacea
Outline: as §1

purple nutsedge = assay: Test B pre/postemergence purple nutsedge; format: in vivo, Cyperus rotundus
Outline: as §1

cocklebur = assay: Test B pre/postemergence cocklebur; format: in vivo, Xanthium strumarium
Outline: as §1

rape = assay: Test B pre/postemergence rape; format: in vivo, Brassica napus
Outline: as §1

sugar beet = assay: Test B pre/postemergence sugar beet; format: in vivo, Beta vulgaris
Outline: as §1

pigweed = assay: Test B pre/postemergence pigweed; format: in vivo, Amaranthus retroflexus
Outline: as §1

[1] = Postemergence, Rate 62 g/ha, scale 0 to 10, 0 is no effect, 10 is complete control
[2] = Postemergence, Rate 125 g/ha, scale of 0 to 10 where 0 is no effect and 10 is complete control
[3] = Preemergence, Rate 125 g/ha, scale of 0 to 10 where 0 is no effect and 10 is complete control
[4] = Preemergence, Rate 250 g/ha, scale 0 (no effect) to 10 (complete control)
[5] = Rate 62 g/ha, Preemergence, scale 0 to 10
[6] = Rate 250 g/ha, Postemergence, scale 0 to 10, 0 is no effect, 10 is complete control
[7] = Rate 500 g/ha, Postemergence, scale 0 to 10, 0 is no effect, 10 is complete control
[8] = Rate 500 g/ha, Preemergence, scale 0 to 10 (0 no effect, 10 complete control)

C#CCn1c(=O)on(C(=O)N(c2ccc(F)cc2)C(C)C)c1=O [Compound 743]
Plant response rating, Wild oats (wild oat; [1]): 0 | Wild oats plant response rating (wild oat; [2]): 0 | Plant response rating, Wild oats (wild oat; [3]): 5 | Wild oats plant response rating (wild oat; [4]): 5 | Wild oats plant response rating (wild oat; [5]): 5 | Wild oats plant response rating (wild oat; [6]): 0 | Wild oats plant response rating (wild oat; [7]): 3 | Wild oats plant response rating (wild oat; [8]): 9 | Plant response rating, Wheat (wheat; [1]): 0 | Wheat plant response rating (wheat; [2]): 0 | Plant response rating, Wheat (wheat; [3]): 0 | Wheat plant response rating (wheat; [4]): 0 | Wheat plant response rating (wheat; [5]): 0 | Wheat plant response rating (wheat; [6]): 3 | Wheat plant response rating (wheat; [7]): 6 | Wheat plant response rating (wheat; [8]): 5 | Plant response rating, B. signalgrass (surinam grass; [1]): 0 | B. signalgrass plant response rating (surinam grass; [2]): 0 | Plant response rating, B. signalgrass (surinam grass; [3]): 3 | B. signalgrass plant response rating (surinam grass; [4]): 4 | B. signalgrass plant response rating (surinam grass; [6]): 3 | B. signalgrass plant response rating (surinam grass; [7]): 7 | B. signalgrass plant response rating (surinam grass; [8]): 8 | Plant response rating, Soybean (soybean; [1]): 0 | Soybean plant response rating (soybean; [2]): 0 | Plant response rating, Soybean (soybean; [3]): 0 | Soybean plant response rating (soybean; [4]): 0 | Soybean plant response rating (soybean; [5]): 0 | Soybean plant response rating (soybean; [6]): 4 | Soybean plant response rating (soybean; [7]): 4 | Soybean plant response rating (soybean; [8]): 0 | Plant response rating, Corn (corn; [1]): 0 | Corn plant response rating (corn; [2]): 0 | Plant response rating, Corn (corn; [3]): 0 | Corn plant response rating (corn; [4]): 0 | Corn plant response rating (corn; [5]): 0 | Corn plant response rating (corn; [6]): 0 | Corn plant response rating (corn; [7]): 0 | Corn plant response rating (corn; [8]): 0 | Plant response rating, Bedstraw (bedstraw; [1]): 0 | Bedstraw plant response rating (bedstraw; [2]): 0 | Plant response rating, Bedstraw (bedstraw; [3]): 0 | Bedstraw plant response rating (bedstraw; [4]): 0 | Bedstraw plant response rating (bedstraw; [5]): 0 | Bedstraw plant response rating (bedstraw; [6]): 4 | Bedstraw plant response rating (bedstraw; [7]): 8 | Bedstraw plant response rating (bedstraw; [8]): 8 | Plant response rating, Giant foxtail (giant foxtail; [1]): 7 | Giant foxtail plant response rating (giant foxtail; [2]): 7 | Plant response rating, Giant foxtail (giant foxtail; [3]): 9 | Giant foxtail plant response rating (giant foxtail; [4]): 9 | Giant foxtail plant response rating (giant foxtail; [5]): 9 | Giant foxtail plant response rating (giant foxtail; [6]): 8 | Giant foxtail plant response rating (giant foxtail; [7]): 8 | Giant foxtail plant response rating (giant foxtail; [8]): 9 | Plant response rating, Blackgrass (blackgrass; [1]): 3 | Blackgrass plant response rating (blackgrass; [2]): 5 | Plant response rating, Blackgrass (blackgrass; [3]): 8 | Blackgrass plant response rating (blackgrass; [4]): 9 | Blackgrass plant response rating (blackgrass; [5]): 8 | Blackgrass plant response rating (blackgrass; [6]): 5 | Blackgrass plant response rating (blackgrass; [7]): 5 | Blackgrass plant response rating (blackgrass; [8]): 9 | Plant response rating, Velvetleaf (velvetleaf; [1]): 0 | Velvetleaf plant response rating (velvetleaf; [2]): 0 | Plant response rating, Velvetleaf (velvetleaf; [3]): 2 | Velvetleaf plant response rating (velvetleaf; [4]): 3 | Velvetleaf plant response rating (velvetleaf; [5]): 0 | Velvetleaf plant response rating (velvetleaf; [6]): 0 | Velvetleaf plant response rating (velvetleaf; [7]): 4 | Velvetleaf plant response rating (velvetleaf; [8]): 3 | Plant response rating, Crabgrass (crabgrass; [1]): 2 | Crabgrass plant response rating (crabgrass; [2]): 5 | Plant response rating, Crabgrass (crabgrass; [3]): 9 | Crabgrass plant response rating (crabgrass; [4]): 9 | Crabgrass plant response rating (crabgrass; [5]): 9 | Crabgrass plant response rating (crabgrass; [6]): 7 | Crabgrass plant response rating (crabgrass; [7]): 9 | Crabgrass plant response rating (crabgrass; [8]): 9 | Plant response rating, Morningglory (morningglory; [1]): 5 | Morningglory plant response rating (morningglory; [2]): 3 | Plant response rating, Morningglory (morningglory; [3]): 0 | Morningglory plant response rating (morningglory; [4]): 0 | Morningglory plant response rating (morningglory; [5]): 0 | Morningglory plant response rating (morningglory; [6]): 2 | Morningglory plant response rating (morningglory; [7]): 10 | Morningglory plant response rating (morningglory; [8]): 0 | Plant response rating, Nutsedge (purple nutsedge; [1]): 0 | Nutsedge plant response rating (purple nutsedge; [2]): 2 | Nutsedge plant response rating (purple nutsedge; [4]): 2 | Nutsedge plant response rating (purple nutsedge; [5]): 0 | Nutsedge plant response rating (purple nutsedge; [6]): 3 | Nutsedge plant response rating (purple nutsedge; [7]): 9 | Nutsedge plant response rating (purple nutsedge; [8]): 9 | Plant response rating, Cocklebur (cocklebur; [1]): 0 | Cocklebur plant response rating (cocklebur; [2]): 0 | Plant response rating, Cocklebur (cocklebur; [3]): 0 | Cocklebur plant response rating (cocklebur; [4]): 0 | Cocklebur plant response rating (cocklebur; [5]): 0 | Cocklebur plant response rating (cocklebur; [6]): 0 | Cocklebur plant response rating (cocklebur; [7]): 3 | Cocklebur plant response rating (cocklebur; [8]): 10 | Plant response rating, Rape (rape; [1]): 0 | Rape plant response rating (rape; [2]): 0 | Plant response rating, Rape (rape; [3]): 5 | Rape plant response rating (rape; [4]): 9 | Rape plant response rating (rape; [5]): 5 | Rape plant response rating (rape; [6]): 0 | Rape plant response rating (rape; [7]): 3 | Rape plant response rating (rape; [8]): 9 | Plant response rating, Sugarbeets (sugar beet; [1]): 0 | Sugarbeets plant response rating (sugar beet; [2]): 0 | Plant response rating, Sugarbeets (sugar beet; [3]): 2 | Sugarbeets plant response rating (sugar beet; [4]): 4 | Sugarbeets plant response rating (sugar beet; [5]): 0 | Sugarbeets plant response rating (sugar beet; [6]): 4 | Sugarbeets plant response rating (sugar beet; [7]): 4 | Sugarbeets plant response rating (sugar beet; [8]): 6 | Plant response rating, Redroot pigweed (pigweed; [1]): 0 | Redroot pigweed plant response rating (pigweed; [2]): 0 | Plant response rating, Redroot pigweed (pigweed; [3]): 9 | Redroot pigweed plant response rating (pigweed; [4]): 9 | Redroot pigweed plant response rating (pigweed; [5]): 7 | Redroot pigweed plant response rating (pigweed; [6]): 5 | Redroot pigweed plant response rating (pigweed; [7]): 8 | Redroot pigweed plant response rating (pigweed; [8]): 10
